In US20220372498A1, “STABILIZER FOR ADENO-ASSOCIATED VIRUSES AND METHOD FOR STABILIZING ADENO-ASSOCIATED VIRUSES BY USING SAME” (priority 2020, published 2022):

Legend:
[1] = tested on: adeno-associated virus serotype 9 (AAV 9); assay: Crystal formation and average particle size after mixing surfactant-treated AAV solution with tannic acid solution (DLS, microscope); type: physicochemical; conditions: surfactant 0.05% (w/w) in AAV solution (PBS, pH 7.4) + 0.5 mM tannic acid, after about 10 minutes
Protocol: The present inventors tried to check the change in AAV stability by treating a surfactant to solve the problem of AAV aggregation when preparing a gene delivery system using AAV. To this end, the effect was verified for various types of surfactants known in the art. More specifically, after mixing 50 uL of 0.5 mM tannic acid solution with 1×108 genome/ul AAV solution in which each of Tween 80, Triton X, CHAPS, cetrimonium bromide (CTAB), and sodium deoxycholate was present in a concentration of 0.05% (w/w) (PBS, pH 7.4), and then after about 10 minutes, the average particle size was measured through dynamic light scattering (DLS), and the formation of crystals that could cause blood vessel clogging was observed under a microscope. At this time, as a condition not treated with a surfactant, 50 uL of a 1×108 genome/ul AAV solution (PBS, pH 7.4) was mixed with 50 uL of 0.5 mM tannic acid solution, and average particle size measurement and microscopic observation were performed in the same manner as above.

[2] = tested on: adeno-associated virus serotype 9 (AAV 9); assay: Crystal formation after mixing FBS with surfactant-containing AAV and tannic acid (microscope); type: physicochemical; conditions: surfactant 0.05% (w/w), 0.5 mM tannic acid, then 50 uL of 10% FBS
Protocol: Furthermore, the present inventors have attempted to verify whether the formation of a potential crystal structure that may block blood vessels when mixed with plasma may be suppressed through the treatment of a surfactant additionally. To this end, 50 uL of 0.5 mM tannic acid solution was mixed with 50 uL of 1×108 genome/ul AAV solution (PBS, pH 7.4) containing each of CTAB, Tween 80, and CHAPS in a concentration of 0.05% (w/w), and then about 5 minutes after, 50 uL of 10% FBS solution was mixed and observed whether crystals of 10 μm or larger were formed under a microscope.

[3] = tested on: adeno-associated virus serotype 9 (AAV 9); assay: AAV stability according to surfactant concentration (UV-Vis absorbance 600 nm scattering, microscope); type: physicochemical; conditions: 0.5 mM tannic acid
Protocol: 50 uL of 0.5 mM tannic acid solution was mixed with 1×108 genome/ul AAV solution in which Tween 80, a nonionic surfactant, is present in a concentration of 0.2%, 0.05%, 0.0125%, and 0.003% (w/w) (PBS, pH 7.4), respectively, and about 5 minutes after, UV-Vis absorbance in the 600 nm wavelength band was measured for scattering, and crystal formation was observed under a microscope.
In addition, under conditions in which Triton X, another nonionic surfactant, is present in a concentration of 0.05%, 0.0125, 0.003%, and 0.0008% (w/w), respectively, AAV and tannic acid solutions were mixed in the same method as above, and the same experiment was performed, and the result was observed.
(§1) 50 uL of 0.5 mM tannic acid solution was mixed with 1×108 genome/ul AAV solution in which the zwitterionic surfactant CHAPS is present in a concentration of 0.4%, 0.1%, 0.025%, 0.006% (w/w) (PBS, pH 7.4), respectively, and after about 5 minutes, UV-Vis absorbance in the 600 nm wavelength band was measured for scattering, and crystal formation was observed under a microscope.
as §1, with “cationic” for “zwitterionic”, “CTAB” for “CHAPS”
as §1, with “anionic” for “zwitterionic”, “sodium deoxycholate” for “CHAPS”, “0.2%, 0.05%, 0.0125%, […]” for “0.4%, 0.1%, 0.025%, 0.006%”

[4] = Viability of mice after tail vein injection of AAV / tannic acid / Tween 80 mixtures; conditions: in vivo
Description: On the other hand, the presence or absence of the formation of such crystalline particles is one of the major factors affecting the survival of experimental animals in animal experiments. Crystalline particles of more than 10 μm can block capillaries in the body, and clogged blood vessels can cause ischemic disease, myocardial infarction, cerebral infarction, rupture of blood vessels, etc., and in severe cases, leading to death. Therefore, the present inventors tried to experimentally confirm how the crystallinity was confirmed in the results of FIG. 1A affects the survival of mice. To this end, 50 uL of 0.5 mM or 0.25 mM tannic acid solution was mixed with 50 uL of 2×109 genome/ul AAV solution containing Tween 80 in a concentration of 0.01% (w/w) (PBS, pH 7.4), and then viability was confirmed by injecting 100 uL of mixed solution into the tail vein of the mouse within about 30 minutes (0.01% (w/w) Tween 80+0.5 mM TA+AAV/0.01% (w/w) Tween 80+0.25 mM TA+AAV). In addition, as a condition with the absence of surfactant, 50 uL of 2×109 genome/ul AAV solution without Tween 80 was mixed with tannic acid under the same conditions and injected into the tail vein of mice (0.5 mM TA+AAV/0.25 mM TA+AAV). […]

[5] = tested on: adeno-associated virus serotype 9 (AAV 9); assay: In vitro stability of particle size over time (DLS; UV-Vis 600 nm scattering); type: physicochemical; conditions: surfactant 0.05% (w/w); 0 min, 30 min, 1 day; compared among Tween 80, CHAPS, sodium deoxycholate
Protocol: The size and shape of AAV particles must be maintained constantly from mixing to injection. Therefore, it was analyzed whether the particle size was maintained until after 30 minutes, which is a time taken from mixing to injection, and a sufficient time, one day. To this end, 50 uL of 0.5 mM tannic acid solution was mixed with 1×108 genome/ul AAV solution in which Tween 80 is present in a concentration of 0.01% (w/w) (PBS, pH 7.4), and then, after about 5 minutes, the average particle sizes were measured at 0 min, […], and 1 day, respectively, through a dynamic light scattering method, and the increase in particle sizes was compared with the initial value.
In addition, 50 uL of 0.5 mM tannic acid solution was mixed with 1×108 genome/ul AAV solution in which various types of surfactants, i.e., Tween 80, CHAPS, and sodium deoxycholate are present in a concentration of 0.05% (w/w) each (PBS, pH 7.4), and then, after about 5 minutes, UV-Vis absorbance of each 600 nm wavelength band was measured at 0 min (min), 30 min, and 1 day (day) to measure the scattering degree. The change in particle size over time was analyzed through an increase in scattering compared to the initial value.

[6] = tested on: adeno-associated virus serotype 9 (AAV 9); assay: AAV stability with albumin alone (DLS, microscope); type: physicochemical; conditions: 0.5 mM tannic acid, about 10 minutes
Protocol: 50 uL of 0.5 mM tannic acid solution was mixed with 1×108 genome/ul AAV solution in which the albumin is present at various concentrations of 10%, 1%, 0.1%, 0.01% (w/w) (PBS, pH 7.4), respectively, and after about 10 minutes, the average particle size was measured through dynamic light scattering, and particle formation was observed under a microscope.

[7] = surfactant 0.006% (w/w), PBS pH 7.4, about 5 minutes
[8] = surfactant 0.025% (w/w), PBS pH 7.4, about 5 minutes
[9] = surfactant 0.4% (w/w), PBS pH 7.4, about 5 minutes
[10] = surfactant 0.003% (w/w), PBS pH 7.4, about 5 minutes
[11] = surfactant 0.0125% (w/w), PBS pH 7.4, about 5 minutes

C[C@H](CCC(=O)NCCC[N+](C)(C)CCCS(=O)(=O)[O-])[C@H]1CC[C@H]2[C@@H]3[C@H](O)C[C@@H]4C[C@H](O)CC[C@]4(C)[C@H]3C[C@H](O)[C@]12C [CHAPS, 3-[(3-cholamidopropyl)dimethylammonio]-1-propanesulfonate]
formation of crystalline particles in which AAV was aggregated (microscope) [1]: not observed | formation of crystals of 10 μm or larger after mixing FBS [2]: crystals are not formed | particle / crystal formation [3, 7]: crystal structure was formed | particle / crystal formation [3, 8]: nano-sized particles were formed | particle / crystal formation ([3]; surfactant 0.1% (w/w), PBS pH 7.4, about 5 minutes): crystal structure was formed | particle / crystal formation [3, 9]: crystal structure was formed

CCCCCCCCCCCCCCCC[N+](C)(C)C.[Br-] [CTAB, cetrimonium bromide]
formation of crystalline particles in which AAV was aggregated (microscope) [1]: not observed | formation of crystals of 10 μm or larger after mixing FBS [2]: crystals are not formed | particle / crystal formation [3, 7]: crystal structure was formed | particle / crystal formation [3, 8]: nano-sized particles | particle / crystal formation [3, 9]: crystal structure was formed

O=C(OC[C@H]1O[C@@H](OC(=O)c2cc(O)c(O)c(OC(=O)c3cc(O)c(O)c(O)c3)c2)[C@H](OC(=O)c2cc(O)c(O)c(OC(=O)c3cc(O)c(O)c(O)c3)c2)[C@@H](OC(=O)c2cc(O)c(O)c(OC(=O)c3cc(O)c(O)c(O)c3)c2)[C@@H]1OC(=O)c1cc(O)c(O)c(OC(=O)c2cc(O)c(O)c(O)c2)c1)c1cc(O)c(O)c(OC(=O)c2cc(O)c(O)c(O)c2)c1 [TA, tannic acid]
Result (viability of mouse) [4]: Survival

Triton X
formation of crystalline particles in which AAV was aggregated (microscope) [1]: not observed | particle / crystal formation ([3]; surfactant 0.0008% (w/w), PBS pH 7.4, about 5 minutes): nano-sized particles were formed | particle / crystal formation [3, 10]: nano-sized particles were formed | particle / crystal formation [3, 11]: crystal structure was formed | particle / crystal formation ([3]; surfactant 0.05% (w/w), PBS pH 7.4, about 5 minutes): crystal structure was formed

Tween 80
formation of crystalline particles in which AAV was aggregated (microscope) [1]: not observed | formation of crystals of 10 μm or larger after mixing FBS [2]: crystals are not formed | particle / crystal formation [3, 10]: crystal structure was formed | particle / crystal formation [3, 11]: nano-sized particles | particle / crystal formation ([3]; surfactant 0.2% (w/w), PBS pH 7.4, about 5 minutes): crystal structure was formed | change in particle size over time (increase in scattering, UV-Vis 600 nm) [5]: most stably maintained

albumin
particle / crystal formation ([6]; albumin 0.01% (w/w)): crystal structure was formed | particle / crystal formation ([6]; albumin 0.1% (w/w)): micro-sized particles were formed | particle / crystal formation ([6]; albumin 1% (w/w)): crystal structure was formed | particle / crystal formation ([6]; albumin 10% (w/w)): crystal structure was formed

sodium deoxycholate
formation of crystalline particles in which AAV was aggregated (microscope) [1]: large fibrous particles were observed | particle / crystal formation ([3]; all concentrations: 0.2%, 0.05%, 0.0125%, 0.0003% (w/w), PBS pH 7.4): crystal structure was formed
